Tested on: recombinant UGT72L1-MBP
Experiment: UGT72L1 glucosyltransferase assay with potential acceptor substrates and 14C-UDP-Glucose
Procedure: All assays were performed in triplicate for 1 hour at 30° C. along with boiled enzyme controls.
For studying pH optima, the buffers were 179 mM MES pH 5.0-7.0, and 179 mM Tris-HCl pH 7.0-9.0. Potential acceptor substrates were (−)-epicatechin, (−)-epigallocatechin, (+)-catechin, (+)-gallocatechin, procyanidins B1 and B2, cyanidin, dihydroquercetin, quercetin, kaemferol, apigenin, luteolin, liquiritigenin, daidzein and genistein (Sigma-Aldrich, St Louis, Mo.).

[1] = UDP-glucose as sugar donor, 0.1 mM acceptor substrate, 1 hour at 30° C., pH 7.5

Oc1cc(O)c2c(c1)O[C@H](c1ccc(O)c(O)c1)[C@H](O)C2 [(−)-epicatechin]
Km (recombinant MBP-UGT72L1 fusion protein): 11.5 µM

Oc1cc(O)c2c(c1)O[C@H](c1cc(O)c(O)c(O)c1)[C@H](O)C2 [(−)-epigallocatechin]
activity for glucosylation, relative to the activity with epicatechin [1]: 27%

O=c1cc(-c2ccc(O)cc2)oc2cc(O)cc(O)c12 [apigenin]
activity for glucosylation (in words) [1]: not active

O=C1c2c(O)cc(O)cc2O[C@H](c2ccc(O)c(O)c2)[C@H]1O [dihydroquercetin]
activity for glucosylation (in words) [1]: not active

O=c1c(-c2ccc(O)cc2)coc2cc(O)cc(O)c12 [genistein]
activity for glucosylation (in words) [1]: not active

O=c1cc(-c2ccc(O)c(O)c2)oc2cc(O)cc(O)c12 [luteolin]
activity for glucosylation (in words) [1]: not active

O=c1c(O)c(-c2ccc(O)c(O)c2)oc2cc(O)cc(O)c12 [quercetin]
activity for glucosylation (in words) [1]: not active
